Results from patent publication US12077503B2, “Substituted cyclic amides and their use as herbicides” (FMC CORPORATION, priority 2015, dated 2024).

Key:
Format in all cases: in vivo
[1] = system: barnyardgrass (Echinochloa crus-galli); assay: Test G Post-Emergence Protocol; details: Echinochloa crus-galli, post-emergence, 312 h; for pest or weed control at 15.625 g/ha: 15.625 g ai/ha, evaluated after 13 days (100=total damage to plant; 0=no damage to plant), read-out: Barnyardgrass damage rating; for pest or weed control at 62.5 g/ha: 62.5 g ai/ha, read-out: Barnyardgrass damage rating (100=total damage to plant; 0=no damage to plant); for pest or weed control at 62.5 g/ha / pest or weed control at 250 g/ha: evaluated after 13 days; for pest or weed control at 250 g/ha: 250 g ai/ha, read-out: damage to plant, Barnyardgrass (100=total damage to plant; 0=no damage to plant)
Experimental: (§1) Seeds of corn (Zea mays), giant foxtail (Setaria faberi), barnyardgrass (Echinochloa crus-galli), ivy-leaved morning glory (Ipomoea hederacea), redroot pigweed (Amaranthus retroflexus) and velvetleaf (Abutilon theophrasti) were sown in standard soil in pots. After cultivation for 8 days under controlled conditions in a glasshouse (at 24/16° C., day/night; 14 hours light; 65% humidity), the plants were sprayed with an aqueous spray solution derived from the formulation of the technical active ingredient in acetone/water (50:50) solution containing 0.5% Tween 20 (polyoxyethylene sorbitan monolaurate, CAS RN 9005-64-5) to give a final dose of 15.625, 62.5 or 250 g/ha of test compound.
(§2) The test plants were then grown on under controlled conditions in a glasshouse (at 24/16° C., day/night; 14 hours light; 65% humidity) and watered twice daily. After 13 days the test was evaluated (100=total damage to plant; 0=no damage to plant). A dash (-) means no test result.

[2] = system: corn (Zea mays); assay: Test G Post-Emergence Protocol; details: Zea mays, post-emergence, 312 h; for plant injury at 15.625 g/ha: 15.625 g ai/ha, evaluated after 13 days (100=total damage to plant; 0=no damage to plant), read-out: Corn damage rating; for plant injury at 62.5 g/ha: 62.5 g ai/ha, read-out: Corn damage rating (100=total damage to plant; 0=no damage to plant); for plant injury at 62.5 g/ha / plant injury at 250 g/ha: evaluated after 13 days; for plant injury at 250 g/ha: 250 g ai/ha, read-out: damage to plant, Corn (100=total damage to plant; 0=no damage to plant)
Experimental: as §1, §2

[3] = system: giant foxtail (Setaria faberi); assay: Test G Post-Emergence Protocol; details: Setaria faberi, post-emergence, 312 h; for pest or weed control at 15.625 g/ha: 15.625 g ai/ha, evaluated after 13 days (100=total damage to plant; 0=no damage to plant), read-out: Foxtail, Giant damage rating; for pest or weed control at 62.5 g/ha: 62.5 g ai/ha, read-out: Foxtail, Giant damage rating (100=total damage to plant; 0=no damage to plant); for pest or weed control at 62.5 g/ha / pest or weed control at 250 g/ha: evaluated after 13 days; for pest or weed control at 250 g/ha: 250 g ai/ha, read-out: damage to plant, Foxtail, Giant (100=total damage to plant; 0=no damage to plant)
Experimental: as §1, §2

[4] = system: ivy-leaved morning glory (Ipomoea hederacea); assay: Test G Post-Emergence Protocol; details: Ipomoea, post-emergence, 312 h; for pest or weed control at 15.625 g/ha: 15.625 g ai/ha, evaluated after 13 days (100=total damage to plant; 0=no damage to plant), read-out: Morningglory, Ivy-leaved damage rating; for pest or weed control at 62.5 g/ha: 62.5 g ai/ha, read-out: Morningglory, Ivy-leaved damage rating (100=total damage to plant; 0=no damage to plant); for pest or weed control at 62.5 g/ha / pest or weed control at 250 g/ha: evaluated after 13 days; for pest or weed control at 250 g/ha: 250 g ai/ha, read-out: damage to plant, Morningglory, Ivy-leaved (100=total damage to plant; 0=no damage to plant)
Experimental: as §1, §2

[5] = system: redroot pigweed (Amaranthus retroflexus); assay: Test G Post-Emergence Protocol; details: Amaranthus retroflexus, post-emergence, 312 h; for pest or weed control at 15.625 g/ha: 15.625 g ai/ha, evaluated after 13 days (100=total damage to plant; 0=no damage to plant), read-out: Pigweed, Redroot damage rating; for pest or weed control at 62.5 g/ha: 62.5 g ai/ha, read-out: Pigweed, Redroot damage rating (100=total damage to plant; 0=no damage to plant); for pest or weed control at 62.5 g/ha / pest or weed control at 250 g/ha: evaluated after 13 days; for pest or weed control at 250 g/ha: 250 g ai/ha, read-out: damage to plant, Pigweed, Redroot (100=total damage to plant; 0=no damage to plant)
Experimental: as §1, §2

[6] = system: velvetleaf (Abutilon theophrasti); assay: Test G Post-Emergence Protocol; details: Abutilon theophrasti, post-emergence, 312 h; for pest or weed control at 15.625 g/ha: 15.625 g ai/ha, evaluated after 13 days (100=total damage to plant; 0=no damage to plant), read-out: Velvetleaf damage rating; for pest or weed control at 62.5 g/ha: 62.5 g ai/ha, read-out: Velvetleaf damage rating (100=total damage to plant; 0=no damage to plant); for pest or weed control at 62.5 g/ha / pest or weed control at 250 g/ha: evaluated after 13 days; for pest or weed control at 250 g/ha: 250 g ai/ha, read-out: damage to plant, Velvetleaf (100=total damage to plant; 0=no damage to plant)
Experimental: as §1, §2

[7] = system: corn (Zea mays); assay: Test A preemergence; details: Zea mays, pre-emergence, 240 h, 0 to 100 scale (0 no effect, 100 complete control)
Summary of the method: (§3)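 Visual injury, scored on a 0–100 scale relative to untreated controls, was recorded about 10 d after application. Treatments were a preemergence soil spray over planted seeds or a postemergence spray on plants at the one- to two-leaf stage, 2 to 10 cm tall, all in loam soil–sand blend in the greenhouse.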

[8] = system: crabgrass, large (Digitaria sanguinalis); assay: Test A preemergence; details: Digitaria sanguinalis, pre-emergence, 240 h, 0 to 100 scale (0 no effect, 100 complete control), read-out: Plant response rating, Crabgrass, Large
Summary of the method: as §3

[9] = system: morningglory (Ipomoea spp.); assay: Test A preemergence; details: Ipomoea, pre-emergence, 240 h, 0 to 100 scale (0 no effect, 100 complete control), read-out: Plant response rating, Morningglory
Summary of the method: as §3

[10] = system: velvetleaf (Abutilon theophrasti); assay: Test A preemergence; details: Abutilon theophrasti, pre-emergence, 240 h, 0 to 100 scale (0 no effect, 100 complete control), read-out: Plant response rating, Velvetleaf
Summary of the method: as §3

[11] = system: wheat (Triticum aestivum); assay: Test A preemergence; details: Triticum aestivum, pre-emergence, 240 h, 0 to 100 scale (0 no effect, 100 complete control), read-out: Plant response rating, Wheat
Summary of the method: as §3

[12] = system: crabgrass, large (Digitaria sanguinalis); assay: Test A postemergence; details: Digitaria sanguinalis, post-emergence, 240 h, Postemergence
Summary of the method: as §3

[13] = system: morningglory (Ipomoea spp.); assay: Test A postemergence; details: Ipomoea, post-emergence, 240 h, Postemergence
Summary of the method: as §3

[14] = system: velvetleaf (Abutilon theophrasti); assay: Test A postemergence; details: Abutilon theophrasti, post-emergence, 240 h, Postemergence
Summary of the method: as §3

Row | Compound | pest or weed control at 15.625 g/ha [1] [%] | pest or weed control at 62.5 g/ha [1] [%] | pest or weed control at 250 g/ha [1] [%] | plant injury at 15.625 g/ha [2] [%] | plant injury at 62.5 g/ha [2] [%] | plant injury at 250 g/ha [2] [%] | pest or weed control at 15.625 g/ha [3] [%] | pest or weed control at 62.5 g/ha [3] [%] | pest or weed control at 250 g/ha [3] [%] | pest or weed control at 15.625 g/ha [4] [%] | pest or weed control at 62.5 g/ha [4] [%] | pest or weed control at 250 g/ha [4] [%] | pest or weed control at 15.625 g/ha [5] [%] | pest or weed control at 62.5 g/ha [5] [%] | pest or weed control at 250 g/ha [5] [%] | pest or weed control at 15.625 g/ha [6] [%] | pest or weed control at 62.5 g/ha [6] [%] | pest or weed control at 250 g/ha [6] [%] | further results
1 | CN1C[C@@H](c2ccc(C(F)(F)F)cc2)[C@H](C(=O)Nc2cnccc2C(F)(F)F)C1=O (racemic) [Compound 1401] | 0 | 20 | 50 | 0 | 0 | 50 | 0 | 60 | 70 | 0 | 0 | 30 | 0 | 0 | 30 | 0 | 20 | 30 | –
2 | CN1C[C@H](c2cccc(C(C)(C)C#N)c2)[C@@H](C(=O)Nc2cccc(F)c2F)C1=O (racemic) [Compound 1497] | 20 | 60 | 60 | 10 | 0 | 50 | 30 | 60 | 60 | 0 | 0 | 10 | 0 | 0 | 0 | 0 | 0 | 20 | –
3 | CN1C[C@@H](c2ccc(C(F)(F)F)cc2)[C@H](C(=O)Nc2ccnc(Cl)c2Cl)C1=O (racemic) [Compound 1503] | 0 | 10 | 10 | 0 | 10 | 10 | 0 | 20 | 40 | 0 | 0 | 0 | 0 | 0 | 0 | 0 | 0 | 0 | –
4 | CN1C[C@@H](c2ccc(C(F)(F)F)cc2)[C@H](C(=O)Nc2ncc(C(F)(F)F)s2)C1=O (racemic) [Compound 1504] | 0 | 0 | 0 | 0 | 0 | 0 | 0 | 0 | 0 | 0 | 0 | 0 | 0 | 0 | 0 | 0 | 0 | 0 | –
5 | O=C1NCC(c2ccccc2)C1C(=O)Nc1cc(F)ccc1F (stereo not shown) [Compound 1359] | – | – | – | – | – | – | – | – | – | – | – | – | – | – | – | – | – | – | Corn plant response rating (crop injury, 0 = no effect, 100 = complete kill) at 500 g/ha ([7]; 500 g ai/ha, preemergence): 0%; Corn plant response rating (crop injury, 0 = no effect, 100 = complete kill) at 125 g/ha ([7]; Preemergence, 125 g ai/ha): 0%; pest or weed control at 500 g/ha ([8]; 500 g ai/ha, preemergence): 20%; pest or weed control at 125 g/ha ([8]; Preemergence, 125 g ai/ha): 0%; pest or weed control at 500 g/ha ([9]; 500 g ai/ha, preemergence): 0%; pest or weed control at 125 g/ha ([9]; Preemergence, 125 g ai/ha): 0%; pest or weed control at 500 g/ha ([10]; 500 g ai/ha, preemergence): 0%; pest or weed control at 125 g/ha ([10]; Preemergence, 125 g ai/ha): 0%; plant injury at 500 g/ha ([11]; 500 g ai/ha, preemergence): 0%; plant injury at 125 g/ha ([11]; Preemergence, 125 g ai/ha): 0%; pest or weed control at 125 g/ha ([12]; 125 g ai/ha, visual rating about 10 d after treatment, read-out: Crabgrass, Large plant response rating (0 to 100 scale)): 0%; pest or weed control at 500 g/ha ([12]; 500 g ai/ha, visual injury, 0 to 100 scale (0 no effect, 100 complete control), approx. 10 d, read-out: Plant response rating, Crabgrass, Large): 0%; pest or weed control at 125 g/ha ([13]; 125 g ai/ha, visual rating about 10 d after treatment, read-out: Morningglory plant response rating (0 to 100 scale)): 0%; pest or weed control at 500 g/ha ([13]; 500 g ai/ha, visual injury, 0 to 100 scale (0 no effect, 100 complete control), approx. 10 d, read-out: Plant response rating, Morningglory): 0%; pest or weed control at 125 g/ha ([14]; 125 g ai/ha, visual rating about 10 d after treatment, read-out: Velvetleaf plant response rating (0 to 100 scale)): 0%; pest or weed control at 500 g/ha ([14]; 500 g ai/ha, visual injury, 0 to 100 scale (0 no effect, 100 complete control), approx. 10 d, read-out: Plant response rating, Velvetleaf): 0%
